According to ChEMBL document CHEMBL5465560, “Selectivity Literature for EUbOPEN Chemogenomic Library” (2024):
Each block holds one compound with its values, some of them ahead of it.

Assays:
[1] = target: Cysteinyl leukotriene receptor 1 (Homo sapiens) (UniProt Q9Y271); test: Selectivity interaction (Eurofins CEREP Diversity Profile (receptors and ion channels)) EUB0000279b CYSLTR1; conditions: at 10 µM
[2] = target: Mitogen-activated protein kinase 1 (Homo sapiens, UniProt P28482); test: Selectivity interaction (Kinase panel (literature)) EUB0001199aCl MAPK1; conditions: at 1 µM
Mitogen-activated protein kinase 1, sequence (P28482 whole entry): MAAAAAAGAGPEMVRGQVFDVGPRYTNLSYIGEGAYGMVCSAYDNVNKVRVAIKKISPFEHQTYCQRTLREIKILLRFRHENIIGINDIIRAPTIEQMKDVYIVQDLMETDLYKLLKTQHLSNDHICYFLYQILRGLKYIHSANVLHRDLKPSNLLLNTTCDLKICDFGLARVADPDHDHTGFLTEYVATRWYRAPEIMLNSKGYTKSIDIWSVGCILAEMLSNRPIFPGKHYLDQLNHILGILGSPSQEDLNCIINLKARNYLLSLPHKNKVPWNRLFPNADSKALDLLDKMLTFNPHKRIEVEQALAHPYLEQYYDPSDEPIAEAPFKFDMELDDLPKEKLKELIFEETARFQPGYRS

[3] = target: T1, Megakaryocyte-associated tyrosine-protein kinase (Homo sapiens) (UniProt P42679); test: Selectivity interaction (KinomeScan (DiscoverX)) EUB0001049a MATK; conditions: at 1 µM
T1 sequence (whole entry): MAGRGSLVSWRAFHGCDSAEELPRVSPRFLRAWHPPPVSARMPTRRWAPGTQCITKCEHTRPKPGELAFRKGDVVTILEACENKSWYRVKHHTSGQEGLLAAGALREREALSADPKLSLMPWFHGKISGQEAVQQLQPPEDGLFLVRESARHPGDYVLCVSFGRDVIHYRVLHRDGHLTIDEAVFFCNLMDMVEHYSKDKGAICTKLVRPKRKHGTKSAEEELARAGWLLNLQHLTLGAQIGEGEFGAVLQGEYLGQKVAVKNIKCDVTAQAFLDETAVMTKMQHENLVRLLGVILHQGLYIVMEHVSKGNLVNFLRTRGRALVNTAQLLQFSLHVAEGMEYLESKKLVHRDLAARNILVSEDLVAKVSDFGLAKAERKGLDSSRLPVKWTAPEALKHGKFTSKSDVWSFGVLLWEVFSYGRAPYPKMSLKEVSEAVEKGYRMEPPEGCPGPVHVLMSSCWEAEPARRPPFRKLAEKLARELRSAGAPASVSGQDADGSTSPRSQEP

[4] = target: Serine/threonine-protein kinase PAK 4 (Homo sapiens, UniProt O96013); test: Selectivity interaction (KinomeScan (DiscoverX)) EUB0001079a PAK4; conditions: at 1 µM
Serine/threonine-protein kinase PAK 4, sequence (O96013 whole entry, looked up): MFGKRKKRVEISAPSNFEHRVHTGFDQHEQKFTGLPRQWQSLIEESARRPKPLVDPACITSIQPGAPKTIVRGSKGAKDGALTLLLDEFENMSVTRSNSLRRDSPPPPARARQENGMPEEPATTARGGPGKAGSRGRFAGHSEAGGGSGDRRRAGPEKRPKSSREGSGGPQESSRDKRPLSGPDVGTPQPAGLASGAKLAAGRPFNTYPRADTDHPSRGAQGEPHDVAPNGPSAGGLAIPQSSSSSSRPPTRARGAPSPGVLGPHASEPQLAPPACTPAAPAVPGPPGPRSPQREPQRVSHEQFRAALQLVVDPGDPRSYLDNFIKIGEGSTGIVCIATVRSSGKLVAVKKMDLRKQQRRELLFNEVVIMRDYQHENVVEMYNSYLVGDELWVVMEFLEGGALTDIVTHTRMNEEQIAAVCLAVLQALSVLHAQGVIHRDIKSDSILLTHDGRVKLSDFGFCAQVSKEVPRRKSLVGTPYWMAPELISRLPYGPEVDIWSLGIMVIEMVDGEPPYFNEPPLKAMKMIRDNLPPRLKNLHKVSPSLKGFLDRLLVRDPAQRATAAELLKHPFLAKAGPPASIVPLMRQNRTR

[5] = target: T2, 3-phosphoinositide-dependent protein kinase 1 (Homo sapiens) (UniProt O15530); test: Selectivity interaction (KinomeScan (DiscoverX)) EUB0001079a PDPK1; conditions: at 1 µM
T2 sequence (whole entry): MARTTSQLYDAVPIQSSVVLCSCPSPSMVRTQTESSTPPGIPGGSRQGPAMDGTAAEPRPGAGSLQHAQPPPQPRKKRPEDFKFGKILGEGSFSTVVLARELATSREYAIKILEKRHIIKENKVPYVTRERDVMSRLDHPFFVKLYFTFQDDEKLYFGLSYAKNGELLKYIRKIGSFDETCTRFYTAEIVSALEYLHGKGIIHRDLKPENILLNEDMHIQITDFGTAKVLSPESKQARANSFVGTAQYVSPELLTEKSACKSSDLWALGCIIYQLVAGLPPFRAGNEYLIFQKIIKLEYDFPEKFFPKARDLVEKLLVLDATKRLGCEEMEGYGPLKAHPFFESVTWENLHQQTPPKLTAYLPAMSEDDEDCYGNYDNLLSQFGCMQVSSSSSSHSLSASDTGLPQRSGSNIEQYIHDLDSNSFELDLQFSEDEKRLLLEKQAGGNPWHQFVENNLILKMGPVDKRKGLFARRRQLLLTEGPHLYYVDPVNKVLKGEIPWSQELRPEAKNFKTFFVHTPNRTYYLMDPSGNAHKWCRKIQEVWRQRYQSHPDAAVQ

[6] = target: Calcium/calmodulin-dependent protein kinase kinase 2 (Homo sapiens) (UniProt Q96RR4); test: Selectivity interaction (Kinase panel (KiNativ target engagement assay in Jurkat cells)) EUB0001635a CAMKK2; format: cell-based; conditions: Selectivity number of off-targets 0.0, Selectivity number of targets 233.0, Source Knowledge https://www.sciencedirect.com/science/article/pii/S2451945619300674?via%3Dihub, at 1 µM
Calcium/calmodulin-dependent protein kinase kinase 2 (Homo sapiens), sequence (Q96RR4 2-588 limits assumed): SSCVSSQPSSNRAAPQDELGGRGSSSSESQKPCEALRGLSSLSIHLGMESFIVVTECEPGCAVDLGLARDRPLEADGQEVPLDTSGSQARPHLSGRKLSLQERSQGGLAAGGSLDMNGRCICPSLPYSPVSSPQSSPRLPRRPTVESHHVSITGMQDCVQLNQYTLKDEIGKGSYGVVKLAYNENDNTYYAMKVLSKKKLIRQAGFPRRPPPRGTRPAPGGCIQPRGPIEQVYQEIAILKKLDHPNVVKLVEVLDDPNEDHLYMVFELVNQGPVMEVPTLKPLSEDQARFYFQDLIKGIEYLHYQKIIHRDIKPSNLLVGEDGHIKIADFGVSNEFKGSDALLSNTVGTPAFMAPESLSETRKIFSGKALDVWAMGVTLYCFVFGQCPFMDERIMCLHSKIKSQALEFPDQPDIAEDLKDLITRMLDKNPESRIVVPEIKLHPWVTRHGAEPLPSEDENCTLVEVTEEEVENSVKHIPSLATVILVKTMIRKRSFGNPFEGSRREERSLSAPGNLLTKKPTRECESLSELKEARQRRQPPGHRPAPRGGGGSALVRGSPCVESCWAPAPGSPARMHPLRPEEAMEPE

[7] = target: T3, Serine/threonine-protein kinase DCLK2 (Homo sapiens) (UniProt Q8N568); test: Selectivity interaction (KinomeScan (DiscoverX)) EUB0000092b DCLK2; conditions: at 10 µM
T3 sequence (whole entry): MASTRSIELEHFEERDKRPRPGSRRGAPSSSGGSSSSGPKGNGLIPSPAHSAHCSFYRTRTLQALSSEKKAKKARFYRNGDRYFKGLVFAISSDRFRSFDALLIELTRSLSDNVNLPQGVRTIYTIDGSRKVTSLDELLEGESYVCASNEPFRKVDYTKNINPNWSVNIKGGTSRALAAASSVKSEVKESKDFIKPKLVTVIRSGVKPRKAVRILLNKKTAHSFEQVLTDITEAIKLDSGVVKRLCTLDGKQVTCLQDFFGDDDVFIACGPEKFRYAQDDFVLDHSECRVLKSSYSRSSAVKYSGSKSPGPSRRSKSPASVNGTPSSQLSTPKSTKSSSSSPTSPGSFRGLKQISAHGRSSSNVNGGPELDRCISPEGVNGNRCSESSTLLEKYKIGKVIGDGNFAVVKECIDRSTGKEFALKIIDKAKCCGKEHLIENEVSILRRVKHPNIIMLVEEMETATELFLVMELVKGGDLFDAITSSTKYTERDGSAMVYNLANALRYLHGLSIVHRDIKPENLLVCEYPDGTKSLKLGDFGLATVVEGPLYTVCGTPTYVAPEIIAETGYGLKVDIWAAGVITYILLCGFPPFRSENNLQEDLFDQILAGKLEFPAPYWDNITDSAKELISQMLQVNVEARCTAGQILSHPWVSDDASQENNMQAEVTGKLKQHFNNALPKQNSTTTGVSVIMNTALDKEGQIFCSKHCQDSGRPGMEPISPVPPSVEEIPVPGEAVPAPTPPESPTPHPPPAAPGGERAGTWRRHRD

Cysteinyl leukotriene receptor 1 (Homo sapiens), sequence (Q9Y271 whole entry): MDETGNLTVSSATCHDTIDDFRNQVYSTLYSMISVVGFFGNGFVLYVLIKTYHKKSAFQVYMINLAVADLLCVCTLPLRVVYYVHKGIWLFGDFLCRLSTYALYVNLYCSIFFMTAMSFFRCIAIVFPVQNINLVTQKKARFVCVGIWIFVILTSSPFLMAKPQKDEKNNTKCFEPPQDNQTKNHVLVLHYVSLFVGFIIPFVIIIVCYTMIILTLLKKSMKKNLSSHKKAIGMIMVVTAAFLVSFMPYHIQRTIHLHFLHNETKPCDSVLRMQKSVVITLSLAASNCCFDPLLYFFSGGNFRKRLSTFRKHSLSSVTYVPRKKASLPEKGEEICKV

% of control [1]: 103%
SMILES: CC(=O)c1cc(-c2ccccc2OCC2CC2)c2ncccn12

% of inhibition [2]: 2%
SMILES: CN1Cc2nccc(-c3cn(C)nc3-c3ccc(F)cc3)c2C1=O

SMILES: COc1cc(Nc2nc(C)cc(-c3cnn4nc(OC)ccc34)n2)cc(C(F)(F)F)c1
% of control [3]: 100%

SMILES: Nc1cnc(N2CCc3cc(S(=O)(=O)Nc4c(F)cc(Cl)cc4F)cc(N4CCCC4=O)c32)nc1 [TP-020n]
% of control [4]: 89%
% of control [5]: 98%

SMILES: C=CC(=O)Nc1ccc(C(=O)Nc2[nH]nc3c2CN(C(=O)N[C@H](CN(C)C)c2ccccc2)C3(C)C)cc1
% of engagement [6]: -3.1%

SMILES: CCC(=O)N1CCN(c2ccc(-n3c(=O)ccc4cnc5ccc(-c6cnc7ccccc7c6)cc5c43)cc2C(F)(F)F)CC1
% of control [7]: 100%
